Data on 6 compounds can be found in ChEMBL document CHEMBL2375306, “Antimicrobial peptides containing unnatural amino acid exhibit potent bactericidal activity against ESKAPE pathogens” (Bioorg Med Chem, 2013).

In brackets after ≈: the same amount, converted by molar mass. Square brackets hold non-standard residues; d marks the D form. Peptide text beside a SMILES is read from it. ξ: configuration not given here. Pro(3ξ,4ξ-(CH2)4) = O=C(O)[C@H]1NCC2CCCCC21; Tic = O=C(O)[C@@H]1Cc2ccccc2CN1; Dab = NCC[C@H](N)C(=O)O; Dap = NC[C@H](N)C(=O)O; βAla = NCCC(=O)O

One may read the MBC as the lowest tested concentration that kills the bacteria rather than only halting them. One may read the MIC as the smallest concentration in the dilution series that meets the test's criterion for growth inhibition. A high value points to weaker potency.

Holding throughout (assay type): functional
For one assay, the system named is Enterococcus faecium. Nature of the assay: Antibacterial activity against Enterococcus faecium MMC4 after 24 hrs by broth microdilution method. The note with it: MMC4, 24 h. A general note: Dilution methods test growth across graded concentrations, often in twofold steps.
In a further assay the test system is Klebsiella aerogenes. Nature of the assay: Antibacterial activity against Enterobacter aerogenes after 24 hrs by broth microdilution method.
In another assay the test system is Pseudomonas aeruginosa. Nature of the assay: Antibacterial activity against Pseudomonas aeruginosa PAO1 after 24 hrs by broth microdilution method. The following applies: PAO1, 24 h.
In a further assay the test system is Klebsiella pneumoniae. Nature of the assay: Antibacterial activity against Klebsiella pneumoniae BAMS clinical isolate 07-18 after 24 hrs by broth microdilution method. The following applies: BAMS clinical isolate 07-18, 24 h.
A further assay deals with Acinetobacter baumannii. Nature of the assay: Antibacterial activity against Acinetobacter baumannii WRAIR clinical isolate 13 after 24 hrs by broth microdilution method. The following applies: WRAIR clinical isolate 13, 24 h.
For the next assay, the system named is Staphylococcus aureus. Nature of the assay: Antibacterial activity against methicillin-sensitive Staphylococcus aureus UAMS-1 after 24 hrs by broth microdilution method. The note with it: UAMS-1, 24 h.

In the case of `CC(C)C[C@H](NC(=O)[C@@H](N)CCCCN)C(=O)N1Cc2ccccc2C[C@H]1C(=O)N1CC2CCCCC2[C@H]1C(=O)NCC(=O)N[C@@H](CCCCN)C(=O)N1Cc2ccccc2C[C@H]1C(=O)N1CC2CCCCC2[C@H]1C(=O)NCC(=O)N[C@@H](Cc1ccccc1)C(=O)N1Cc2ccccc2C[C@H]1C(=O)N1CC2CCCCC2[C@H]1C(=O)NCC(=O)N[C@@H](CCCCN)C(=O)N1Cc2ccccc2C[C@H]1C(=O)N1CC2CCCCC2[C@H]1C(=O)NCC(=O)N[C@@H](Cc1ccccc1)C(=O)N1Cc2ccccc2C[C@H]1C(=O)N1CC2CCCCC2[C@H]1C(=O)NCC(=O)N[C@@H](CCCCN)C(=O)N1Cc2ccccc2C[C@H]1C(=O)N1CC2CCCCC2[C@H]1C(=O)N[C@@H](CCCCN)C(=O)N[C@@H](CCCCN)C(=O)N[C@@H](CCCCN)C(=O)N[C@@H](CCCCN)C(N)=O` (some centres not stated) (H-KL[Tic][Pro(3ξ,4ξ-(CH2)4)]GK[Tic][Pro(3ξ,4ξ-(CH2)4)]GF[Tic][Pro(3ξ,4ξ-(CH2)4)]GK[Tic][Pro(3ξ,4ξ-(CH2)4)]GF[Tic][Pro(3ξ,4ξ-(CH2)4)]GK[Tic][Pro(3ξ,4ξ-(CH2)4)]KKKK-NH2), the MBC against Enterococcus faecium was determined as 25 µg/mL (≈ 6.95 µM); against Klebsiella aerogenes, 50 µg/mL (≈ 13.9 µM); against Pseudomonas aeruginosa, 50 µg/mL (≈ 13.9 µM); with Klebsiella pneumoniae it was 50 µg/mL (≈ 13.9 µM); in the assay with Acinetobacter baumannii, 12.5 µg/mL (≈ 3.47 µM); in the assay on Staphylococcus aureus it was 50 µg/mL (≈ 13.9 µM). Also, the MIC is 6.25 µg/mL (≈ 1.74 µM) in the assay with Enterococcus faecium; 50 µg/mL (≈ 13.9 µM) against Klebsiella aerogenes; 50 µg/mL (≈ 13.9 µM) against Pseudomonas aeruginosa; 50 µg/mL (≈ 13.9 µM) in the assay with Klebsiella pneumoniae; 12.5 µg/mL (≈ 3.47 µM) in the assay with Acinetobacter baumannii; 50 µg/mL (≈ 13.9 µM) in the assay on Staphylococcus aureus.
In the case of `CC(C)C[C@H](NC(=O)[C@@H](N)CCCCN)C(=O)N1Cc2ccccc2C[C@H]1C(=O)N1CC2CCCCC2[C@H]1C(=O)NCC(=O)N[C@@H](CCCCN)C(=O)N1Cc2ccccc2C[C@H]1C(=O)N1CC2CCCCC2[C@H]1C(=O)NCCC(=O)N[C@@H](Cc1ccccc1)C(=O)N1Cc2ccccc2C[C@H]1C(=O)N1CC2CCCCC2[C@H]1C(=O)NCC(=O)N[C@@H](CCCCN)C(=O)N1Cc2ccccc2C[C@H]1C(=O)N1CC2CCCCC2[C@H]1C(=O)NCCC(=O)N[C@@H](Cc1ccccc1)C(=O)N1Cc2ccccc2C[C@H]1C(=O)N1CC2CCCCC2[C@H]1C(=O)NCC(=O)N[C@@H](CCCCN)C(=O)N1Cc2ccccc2C[C@H]1C(=O)N1CC2CCCCC2[C@H]1C(=O)N[C@@H](CCCCN)C(=O)N[C@@H](CCCCN)C(=O)N[C@@H](CCCCN)C(=O)N[C@@H](CCCCN)C(N)=O` (some centres not stated) (H-KL[Tic][Pro(3ξ,4ξ-(CH2)4)]GK[Tic][Pro(3ξ,4ξ-(CH2)4)][βAla]F[Tic][Pro(3ξ,4ξ-(CH2)4)]GK[Tic][Pro(3ξ,4ξ-(CH2)4)][βAla]F[Tic][Pro(3ξ,4ξ-(CH2)4)]GK[Tic][Pro(3ξ,4ξ-(CH2)4)]KKKK-NH2), the MBC was 25 µg/mL (≈ 6.9 µM) in the assay on Enterococcus faecium; 100 µg/mL (≈ 27.6 µM) in the assay on Klebsiella aerogenes; 50 µg/mL (≈ 13.8 µM) in the assay with Pseudomonas aeruginosa; 50 µg/mL (≈ 13.8 µM) against Klebsiella pneumoniae; 25 µg/mL (≈ 6.9 µM) in the assay with Acinetobacter baumannii; 50 µg/mL (≈ 13.8 µM) against Staphylococcus aureus. Also, the MIC with Enterococcus faecium was determined as 6.25 µg/mL (≈ 1.72 µM); in the assay with Klebsiella aerogenes it was 50 µg/mL (≈ 13.8 µM); in the assay with Pseudomonas aeruginosa, 25 µg/mL (≈ 6.9 µM); in the assay on Klebsiella pneumoniae, 50 µg/mL (≈ 13.8 µM); in the assay with Acinetobacter baumannii, 6.25 µg/mL (≈ 1.72 µM); in the assay with Staphylococcus aureus it was 50 µg/mL (≈ 13.8 µM).
For `CC(C)C[C@H](NC(=O)[C@@H](N)CCCCN)C(=O)N1Cc2ccccc2C[C@H]1C(=O)N1CC2CCCCC2[C@H]1C(=O)N[C@@H](CCCCN)C(=O)NCC(=O)N1Cc2ccccc2C[C@H]1C(=O)N1CC2CCCCC2[C@H]1C(=O)N[C@@H](Cc1ccccc1)C(=O)N1Cc2ccccc2C[C@H]1C(=O)N1CC2CCCCC2[C@H]1C(=O)N[C@@H](CCCCN)C(=O)NCC(=O)N1Cc2ccccc2C[C@H]1C(=O)N1CC2CCCCC2[C@H]1C(=O)N[C@@H](Cc1ccccc1)C(=O)N1Cc2ccccc2C[C@H]1C(=O)N1CC2CCCCC2[C@H]1C(=O)N[C@@H](CCCCN)C(=O)NCC(=O)N1Cc2ccccc2C[C@H]1C(=O)N1CC2CCCCC2[C@H]1C(=O)N[C@@H](CCCCN)C(=O)N[C@@H](CCCCN)C(=O)N[C@@H](CCCCN)C(=O)N[C@@H](CCCCN)C(N)=O` (some centres not stated) (H-KL[Tic][Pro(3ξ,4ξ-(CH2)4)]KG[Tic][Pro(3ξ,4ξ-(CH2)4)]F[Tic][Pro(3ξ,4ξ-(CH2)4)]KG[Tic][Pro(3ξ,4ξ-(CH2)4)]F[Tic][Pro(3ξ,4ξ-(CH2)4)]KG[Tic][Pro(3ξ,4ξ-(CH2)4)]KKKK-NH2), the MBC was 6.25 µg/mL (≈ 1.79 µM) against Enterococcus faecium; more than 100 µg/mL in the assay with Klebsiella aerogenes; 50 µg/mL (≈ 14.4 µM) in the assay with Pseudomonas aeruginosa; 100 µg/mL (≈ 28.7 µM) with Klebsiella pneumoniae; 12.5 µg/mL (≈ 3.59 µM) in the assay with Acinetobacter baumannii; 50 µg/mL (≈ 14.4 µM) in the assay on Staphylococcus aureus. For the same compound, the MIC is 6.25 µg/mL (≈ 1.79 µM) against Enterococcus faecium; more than 100 µg/mL with Klebsiella aerogenes; 50 µg/mL (≈ 14.4 µM) in the assay on Pseudomonas aeruginosa; 50 µg/mL (≈ 14.4 µM) against Klebsiella pneumoniae; 12.5 µg/mL (≈ 3.59 µM) in the assay with Acinetobacter baumannii; 50 µg/mL (≈ 14.4 µM) against Staphylococcus aureus.
As to `CC(C)C[C@H](NC(=O)[C@@H](N)CCCCN)C(=O)N1Cc2ccccc2C[C@H]1C(=O)N1CC2CCCCC2[C@H]1C(=O)N[C@@H](CCCCN)C(=O)N1Cc2ccccc2C[C@H]1C(=O)N1CC2CCCCC2[C@H]1C(=O)N[C@@H](Cc1ccccc1)C(=O)N1Cc2ccccc2C[C@H]1C(=O)N1CC2CCCCC2[C@H]1C(=O)N[C@@H](CCCCN)C(=O)N1Cc2ccccc2C[C@H]1C(=O)N1CC2CCCCC2[C@H]1C(=O)N[C@@H](Cc1ccccc1)C(=O)N1Cc2ccccc2C[C@H]1C(=O)N1CC2CCCCC2[C@H]1C(=O)N[C@@H](CCCCN)C(=O)N1Cc2ccccc2C[C@H]1C(=O)N1CC2CCCCC2[C@H]1C(=O)N[C@@H](CCCCN)C(=O)N[C@@H](CCCNC(=N)N)C(N)=O` (some centres not stated) (H-KL[Tic][Pro(3ξ,4ξ-(CH2)4)]K[Tic][Pro(3ξ,4ξ-(CH2)4)]F[Tic][Pro(3ξ,4ξ-(CH2)4)]K[Tic][Pro(3ξ,4ξ-(CH2)4)]F[Tic][Pro(3ξ,4ξ-(CH2)4)]K[Tic][Pro(3ξ,4ξ-(CH2)4)]KR-NH2), the MBC is 25 µg/mL (≈ 8.11 µM) in the assay with Enterococcus faecium; more than 100 µg/mL against Klebsiella aerogenes; more than 100 µg/mL against Pseudomonas aeruginosa; more than 100 µg/mL in the assay with Klebsiella pneumoniae; more than 100 µg/mL against Acinetobacter baumannii; 50 µg/mL (≈ 16.2 µM) in the assay on Staphylococcus aureus. Further, the MIC is 12.5 µg/mL (≈ 4.05 µM) against Enterococcus faecium; more than 100 µg/mL in the assay on Klebsiella aerogenes; more than 100 µg/mL with Pseudomonas aeruginosa; more than 100 µg/mL against Klebsiella pneumoniae; 100 µg/mL (≈ 32.4 µM) in the assay on Acinetobacter baumannii; 50 µg/mL (≈ 16.2 µM) in the assay with Staphylococcus aureus.
On to `CC(C)C[C@H](NC(=O)[C@@H](N)CCN)C(=O)N1Cc2ccccc2C[C@H]1C(=O)N1CC2CCCCC2[C@H]1C(=O)N[C@@H](CCN)C(=O)N1Cc2ccccc2C[C@H]1C(=O)N1CC2CCCCC2[C@H]1C(=O)N[C@@H](Cc1ccccc1)C(=O)N1Cc2ccccc2C[C@H]1C(=O)N1CC2CCCCC2[C@H]1C(=O)N[C@@H](CCN)C(=O)N1Cc2ccccc2C[C@H]1C(=O)N1CC2CCCCC2[C@H]1C(=O)N[C@@H](Cc1ccccc1)C(=O)N1Cc2ccccc2C[C@H]1C(=O)N1CC2CCCCC2[C@H]1C(=O)N[C@@H](CCN)C(=O)N1Cc2ccccc2C[C@H]1C(=O)N1CC2CCCCC2[C@H]1C(=O)N[C@@H](CCN)C(=O)N[C@@H](CCN)C(=O)N[C@@H](CCN)C(=O)N[C@@H](CCN)C(N)=O` (some centres not stated) (H-[Dab]L[Tic][Pro(3ξ,4ξ-(CH2)4)][Dab][Tic][Pro(3ξ,4ξ-(CH2)4)]F[Tic][Pro(3ξ,4ξ-(CH2)4)][Dab][Tic][Pro(3ξ,4ξ-(CH2)4)]F[Tic][Pro(3ξ,4ξ-(CH2)4)][Dab][Tic][Pro(3ξ,4ξ-(CH2)4)][Dab][Dab][Dab][Dab]-NH2), for which the MBC in the assay with Enterococcus faecium worked out at 25 µg/mL (≈ 8.1 µM); against Klebsiella aerogenes, 50 µg/mL (≈ 16.2 µM); against Pseudomonas aeruginosa it was 100 µg/mL (≈ 32.4 µM); in the assay on Klebsiella pneumoniae it was 100 µg/mL (≈ 32.4 µM); in the assay with Acinetobacter baumannii, 100 µg/mL (≈ 32.4 µM); against Staphylococcus aureus, 25 µg/mL (≈ 8.1 µM). Besides, the MIC against Enterococcus faecium stood at 12.5 µg/mL (≈ 4.05 µM); against Klebsiella aerogenes it was 50 µg/mL (≈ 16.2 µM); in the assay on Pseudomonas aeruginosa it was 50 µg/mL (≈ 16.2 µM); in the assay on Klebsiella pneumoniae, 50 µg/mL (≈ 16.2 µM); with Acinetobacter baumannii, 25 µg/mL (≈ 8.1 µM); against Staphylococcus aureus it was 25 µg/mL (≈ 8.1 µM).
For `CC(C)C[C@H](NC(=O)[C@@H](N)CN)C(=O)N1Cc2ccccc2C[C@H]1C(=O)N1CC2CCCCC2[C@H]1C(=O)N[C@@H](CN)C(=O)N1Cc2ccccc2C[C@H]1C(=O)N1CC2CCCCC2[C@H]1C(=O)N[C@@H](Cc1ccccc1)C(=O)N1Cc2ccccc2C[C@H]1C(=O)N1CC2CCCCC2[C@H]1C(=O)N[C@@H](CN)C(=O)N1Cc2ccccc2C[C@H]1C(=O)N1CC2CCCCC2[C@H]1C(=O)N[C@@H](Cc1ccccc1)C(=O)N1Cc2ccccc2C[C@H]1C(=O)N1CC2CCCCC2[C@H]1C(=O)N[C@@H](CN)C(=O)N1Cc2ccccc2C[C@H]1C(=O)N1CC2CCCCC2[C@H]1C(=O)N[C@@H](CN)C(=O)N[C@@H](CN)C(=O)N[C@@H](CN)C(=O)N[C@@H](CN)C(N)=O` (some centres not stated) (H-[Dap]L[Tic][Pro(3ξ,4ξ-(CH2)4)][Dap][Tic][Pro(3ξ,4ξ-(CH2)4)]F[Tic][Pro(3ξ,4ξ-(CH2)4)][Dap][Tic][Pro(3ξ,4ξ-(CH2)4)]F[Tic][Pro(3ξ,4ξ-(CH2)4)][Dap][Tic][Pro(3ξ,4ξ-(CH2)4)][Dap][Dap][Dap][Dap]-NH2), the MBC turned out to be 25 µg/mL (≈ 8.4 µM) in the assay with Enterococcus faecium; 100 µg/mL (≈ 33.6 µM) in the assay on Klebsiella aerogenes; 100 µg/mL (≈ 33.6 µM) in the assay on Pseudomonas aeruginosa; 100 µg/mL (≈ 33.6 µM) in the assay with Klebsiella pneumoniae; 50 µg/mL (≈ 16.8 µM) in the assay on Acinetobacter baumannii; 100 µg/mL (≈ 33.6 µM) against Staphylococcus aureus. Also, the MIC is 12.5 µg/mL (≈ 4.2 µM) in the assay with Enterococcus faecium; 100 µg/mL (≈ 33.6 µM) against Klebsiella aerogenes; 50 µg/mL (≈ 16.8 µM) against Pseudomonas aeruginosa; 100 µg/mL (≈ 33.6 µM) against Klebsiella pneumoniae; 12.5 µg/mL (≈ 4.2 µM) in the assay on Acinetobacter baumannii; 50 µg/mL (≈ 16.8 µM) with Staphylococcus aureus.
